Experimental data reported in US8497307B2, “Aryl guanidine F1F0-ATPase inhibitors and related methods” (The Regents of the University of Michigan, priority 2008, dated 2013).

Tested on: Ramos cells
Assay: Cytotoxicity in Ramos cells (cell death)
Assay type: cell-based
Method: The compounds listed in Table 7 were tested for cytotoxicity in Ramos cells. The assay was conducted as described in K. M. Johnson et al. Chemistry & Biology 2005, 12, 485-496.

SMILES | EC50 [µM]
N#Cc1cccc(C(=O)N=C(Nc2cc(Cl)cc(Cl)c2)Nc2ccc3[nH]c(=O)oc3c2)c1 [Compound I-116] | > 10
CC(C)(C)c1ccccc1NC(=NC(=O)c1ccc(Br)cc1)NCCc1c[nH]cn1 [III-4] | < 10
O=C(N=C(Nc1ccc(Cl)cc1)Nc1ccc2[nH]c(=O)oc2c1)c1ccc(Cl)cc1 [Compound I-90] | > 10
O=C(N=C(Nc1cccc(Cl)c1)Nc1ccc2[nH]c(=O)oc2c1)c1ccc(Cl)cc1 [Compound I-91] | < 10
O=C(N=C(Nc1cccc(C(F)(F)F)c1)Nc1ccc2[nH]ncc2c1)c1ccc(Cl)cc1 [II-21] | < 10
O=C(N=C(Nc1ccc2[nH]ncc2c1)Nc1ccccc1C(F)(F)F)c1cccc(Cl)c1 [II-3] | < 10
CC(C)(C)c1ccccc1NC(=NC(=O)c1cccc(C#N)c1)Nc1ccc2oc(=O)[nH]c2c1 [Compound I-130] | > 10
CC(C)(C)c1ccccc1NC(=NC(=O)c1ccc(Cl)cc1)Nc1ccc2[nH]ncc2c1 [II-6] | < 10
N#Cc1cccc(C(=O)N=C(Nc2cccc(C3CC3)c2)Nc2ccc3[nH]c(=O)oc3c2)c1 [Compound I-110] | < 10
CC(C)(C)c1cccc(NC(=NC(=O)c2cccc(C#N)c2)Nc2ccc3[nH]c(=O)oc3c2)c1 [Compound I-111] | < 10
CC(C)(C)c1ccc(NC(=NC(=O)c2ccc(C(F)(F)F)cc2)Nc2ccc3[nH]c(=O)oc3c2)cc1 [Compound I-128] | < 10
O=C(N=C(Nc1ccc2[nH]c(=O)oc2c1)Nc1ccccc1C(F)(F)F)c1ccc(Br)cc1 [Compound I-17] | < 10
O=C(N=C(Nc1ccc2[nH]c(=O)oc2c1)Nc1ccccc1C1CC1)c1ccc(C(F)(F)F)cc1 [Compound I-121] | < 10
O=C(N=C(Nc1ccc(-c2ccccc2)cc1)Nc1ccc2[nH]c(=O)oc2c1)c1ccc(Cl)cc1 [Compound I-30] | < 10
O=C(N=C(Nc1ccc(-c2ccccc2)cc1)Nc1ccc2[nH]c(=O)[nH]c2c1)c1ccc(F)cc1 [Compound I-16] | > 10
CC(C)(C)c1ccccc1NC(=NC(=O)c1ccc(F)cc1)Nc1ccc2[nH]c(=O)[nH]c2c1 [Compound I-8] | < 10
CC(C)(C)c1ccccc1NC(=NC(=O)c1cccc(Cl)c1)Nc1ccc2[nH]ncc2c1 [II-7] | < 10
O=C(N=C(Nc1ccc2[nH]ncc2c1)Nc1ccccc1C(F)(F)F)c1ccc(Cl)cc1 [II-2] | < 10
O=C(N=C(NCCc1c[nH]cn1)Nc1ccc2ccccc2c1)c1cccc(Cl)c1 [III-10] | < 10
O=C(N=C(Nc1ccc2[nH]c(=O)oc2c1)Nc1ccc(Cl)cc1F)c1cccc(C(F)(F)F)c1 [Compound I-99] | > 10

SMILES | EC50 [µM]
O=C(N=C(Nc1ccc2ccccc2c1)Nc1ccc2[nH]ncc2c1)c1ccc(Cl)cc1 [II-10] | < 10
O=C(N=C(Nc1ccc2[nH]ncc2c1)Nc1ccccc1C(F)(F)F)c1ccc(F)cc1 [II-4] | < 10
CC(C)(C)c1ccccc1NC(=NC(=O)c1ccc(F)cc1)NCCc1c[nH]cn1 [III-7] | > 10
O=C(N=C(Nc1ccc(-c2ccccc2)cc1)Nc1ccc2[nH]c(=O)[nH]c2c1)c1ccc(Br)cc1 [Compound I-13] | > 10
CC(C)(C)c1ccccc1NC(=NC(=O)c1ccc(F)cc1)Nc1ccc2[nH]ncc2c1 [II-8] | < 10
N#Cc1cccc(C(=O)N=C(Nc2ccc3[nH]c(=O)oc3c2)Nc2ccccc2Cl)c1 [Compound I-113] | < 10
CC(C)(C)c1ccccc1NC(=NC(=O)c1ccc(Br)cc1)Nc1ccc2[nH]c(=O)[nH]c2c1 [Compound I-5] | < 10
N#Cc1ccc(C(=O)N=C(Nc2cccc(C(F)(F)F)c2)Nc2ccc3[nH]c(=O)oc3c2)cc1 [Compound I-105] | > 10
CC(C)(C)c1ccccc1NC(=NC(=O)c1cccc(F)c1)Nc1ccc2[nH]c(=O)oc2c1 [Compound I-96] | < 10
CC(C)(C)c1ccccc1NC(=NC(=O)c1ccc(Cl)cc1)Nc1ccc2[nH]c(=O)[nH]c2c1 [Compound I-6] | < 10
O=C(N=C(Nc1ccc2[nH]c(=O)[nH]c2c1)Nc1ccccc1C(F)(F)F)c1ccc(Br)cc1 [Compound I-1] | > 10
CC(C)(C)c1ccccc1NC(=NC(=O)c1cccc(Cl)c1)Nc1ccc2[nH]c(=O)[nH]c2c1 [Compound I-7] | < 10
O=C(N=C(Nc1ccc2ccccc2c1)Nc1ccc2[nH]c(=O)oc2c1)c1ccc(Br)cc1 [Compound I-25] | < 10
O=C(N=C(Nc1ccc(C2CC2)cc1)Nc1ccc2[nH]c(=O)oc2c1)c1ccc(C(F)(F)F)cc1 [Compound I-137] | < 10
CC(C)(C)c1ccc(NC(=NC(=O)c2cccc(C#N)c2)Nc2ccc3[nH]c(=O)oc3c2)cc1 [Compound I-119] | < 10
O=C(N=C(NCCc1c[nH]cn1)Nc1ccc2ccccc2c1)c1ccc(Br)cc1 [III-8] | < 10
O=C(N=C(Nc1ccc2[nH]c(=O)[nH]c2c1)Nc1ccccc1C(F)(F)F)c1ccc(F)cc1 [Compound I-4] | < 10
CC(C)(C)c1ccccc1NC(=NC(=O)c1ccc(C(F)(F)F)cc1)Nc1ccc2[nH]ncc2c1 [II-18] | < 10
N#Cc1cccc(C(=O)N=C(Nc2ccc(Cl)cc2)Nc2ccc3[nH]c(=O)oc3c2)c1 [Compound I-115] | < 10
O=C(N=C(Nc1cccc(C2CC2)c1)Nc1ccc2[nH]c(=O)oc2c1)c1cccc(C(F)(F)F)c1 [Compound I-109] | < 10

SMILES | EC50 [µM]
CC(C)(C)c1ccccc1NC(=NC(=O)c1ccc(Cl)cc1)NCCc1c[nH]cn1 [III-5] | < 10
O=C(N=C(Nc1ccc(-c2ccccc2)cc1)Nc1ccc2[nH]c(=O)[nH]c2c1)c1cccc(Cl)c1 [Compound I-15] | > 10
O=C(N=C(NCCc1c[nH]cn1)Nc1ccc2ccccc2c1)c1ccc(Cl)cc1 [III-9] | > 10
CC(C)(C)c1cccc(NC(=NC(=O)c2ccc(C(F)(F)F)c(F)c2)Nc2ccc3[nH]c(=O)oc3c2)c1 [Compound I-108] | < 10
O=C(N=C(Nc1ccc(Cl)cc1)Nc1ccc2[nH]ncc2c1)c1ccc(C(F)(F)F)cc1 [II-19] | < 10
N#Cc1cccc(C(=O)N=C(Nc2cccc(Cl)c2)Nc2ccc3[nH]c(=O)oc3c2)c1 [Compound I-114] | < 10
O=C(N=C(NCCc1c[nH]cn1)Nc1ccc2ccccc2c1)c1ccc(F)cc1 [III-11] | > 10
O=C(N=C(Nc1ccc2ccccc2c1)Nc1ccc2[nH]c(=O)[nH]c2c1)c1ccc(Cl)cc1 [Compound I-10] | > 10
O=C(N=C(Nc1ccc2ccccc2c1)Nc1ccc2[nH]ncc2c1)c1ccc(F)cc1 [II-12] | < 10
O=C(N=C(Nc1cccc(Cl)c1)Nc1ccc2[nH]ncc2c1)c1ccc(Cl)cc1 [II-23] | < 10
CC(C)(C)c1ccccc1NC(=NC(=O)c1ccc(F)cc1)Nc1ccc2[nH]c(=O)oc2c1 [Compound I-24] | < 10
CC(C)(C)c1ccccc1NC(=NC(=O)c1ccc(C(F)(F)F)cc1F)Nc1ccc2oc(=O)[nH]c2c1 [Compound I-132] | > 10
O=C(N=C(Nc1cccc(Cl)c1)Nc1ccc2[nH]c(=O)oc2c1)c1ccc(C(F)(F)F)cc1 [Compound I-88] | < 10
O=C(N=C(Nc1ccc2[nH]c(=O)[nH]c2c1)Nc1ccccc1C(F)(F)F)c1cccc(Cl)c1 [Compound I-3] | > 10
CC(C)(C)c1ccccc1NC(=NC(=O)c1ccc(C#N)cc1)Nc1ccc2[nH]c(=O)oc2c1 [Compound I-103] | < 10
N#Cc1cccc(C(=O)N=C(Nc2ccc3[nH]c(=O)oc3c2)Nc2ccccc2C(F)(F)F)c1 [Compound I-101] | > 10
O=C(N=C(Nc1ccc(-c2ccccc2)cc1)Nc1ccc2[nH]c(=O)oc2c1)c1ccc(Br)cc1 [Compound I-29] | < 10
O=C(N=C(Nc1ccc2[nH]c(=O)[nH]c2c1)Nc1ccccc1C(F)(F)F)c1ccc(Cl)cc1 [Compound I-2] | > 10
